Tested on: ICR mice
Assay: Scratching behavior test with PAR2 agonist peptide (SLIGRL-NH2) administration
Format: in vivo, mouse
Details: 40 μL of 6% test compound solution applied to back, solvent 100% ethanol, SLIGRL-NH2 intradermal, scratching counted 10 to 40 minutes after
Description: Test Example 2: Scratching Behavior Test with PAR2 Agonist Peptide Administration
Magnets for measuring scratching behavior(Neuroscience, Inc.) were implanted in both legs of 6- to 7-week-old female ICR mice under 3.5% isoflurane inhalation anesthesia.
Under isoflurane inhalation anesthesia, the upper back was shaved about 2×3 cm with a shaver and 40 μL of a 6% of test compound solution was applied with a micropipette. The animals were then kept in a dedicated cage for 1 hour. […] Then, under isoflurane inhalation anesthesia, 10 μL of a 25 mg/mL solution of PAR2 agonist peptide (SLIGRL-NH2) in distilled water was administered intradermally by using a needle attached to a Hamilton syringe. The animals were returned to the cage and the scratching frequency was measured by the device for 30 minutes from 10 to 40 minutes after the administration.
The inhibitory effect of the test compounds on scratching behavior was calculated as a percentage of the number of scratches in the solvent-applied and PAR2 agonist peptide-treated group, and is shown in Table 4 as a percentage.

SMILES | scratching-behavior inhibition rate [%]
CC(C)c1cc(C23CC4CC(CC(C4)C2)C3)nc2cc(C(=O)N3CCCCC3(C)C)nn12 [Example 2] | 46
CC1(C)CC(O)CCN1C(=O)c1cc2nc(CC3CCCCC3)cc(C(F)(F)F)n2n1 (stereo not drawn) [Example 5] | 36
CCC(CC)c1cc(CC2CCCC2)nc2cc(C(=O)N3CCCCC3(C)C)nn12 [Example 13] | 37
CCCc1cc(CC2CCCC2)nc2cc(C(=O)N3CCCCCC3)nn12 [Example 16] | 47
CC(C)c1cc(CC2CCCC2)nc2cc(C(=O)N3CCSCC3(C)C)nn12 [Example 18] | 39
CC(C)c1cc(C2CCCCC2)nc2cc(C(=O)N3CCCCC3(C)C)nn12 [Example 32] | 41
CCC(CC)c1cc(CC2CCCCC2)nc2cc(C(=O)N3CCCCCC3)nn12 [Example 37] | 30

Biological target: T1, PAR2 (Homo sapiens, UniProt P55085)
T1 construct: HEK293 cell lines derived from human embryonic kidney cultured in a MEM culture medium; endogenous in cells; host or cells: HEK293
T1 sequence (P55085 26-397): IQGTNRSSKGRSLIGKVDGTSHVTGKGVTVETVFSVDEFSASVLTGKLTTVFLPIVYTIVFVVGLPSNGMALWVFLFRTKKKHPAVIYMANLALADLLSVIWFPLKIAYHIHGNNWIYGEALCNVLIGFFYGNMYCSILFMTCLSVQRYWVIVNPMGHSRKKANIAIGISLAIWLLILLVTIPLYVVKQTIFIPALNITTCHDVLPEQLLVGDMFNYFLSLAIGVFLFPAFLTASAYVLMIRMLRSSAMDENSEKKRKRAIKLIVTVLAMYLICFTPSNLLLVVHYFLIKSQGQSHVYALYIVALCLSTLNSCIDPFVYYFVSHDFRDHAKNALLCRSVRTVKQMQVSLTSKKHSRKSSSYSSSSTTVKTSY
Assay: Intracellular calcium concentration measurement (SLIGKV-NH2-induced calcium change, Fluo-8, FDSS/μCELL)
Format: cell-based
Details: HEK293 cells; SLIGKV-NH2 10 μM-induced intracellular calcium change; read-out: IC50

SMILES | IC50 [nM]
CC(C)c1cc(C23CC4CC(CC(C4)C2)C3)nc2cc(C(=O)N3CCCCC3(C)C)nn12 [Example 2] | 31
CC1(C)CC(O)CCN1C(=O)c1cc2nc(CC3CCCCC3)cc(C(F)(F)F)n2n1 (stereo not drawn) [Example 5] | 130
CCC(CC)c1cc(CC2CCCC2)nc2cc(C(=O)N3CCCCC3(C)C)nn12 [Example 13] | 69
CCCc1cc(CC2CCCC2)nc2cc(C(=O)N3CCCCCC3)nn12 [Example 16] | 259
CC(C)c1cc(CC2CCCC2)nc2cc(C(=O)N3CCSCC3(C)C)nn12 [Example 18] | 36
CC(C)c1cc(C2CCCCC2)nc2cc(C(=O)N3CCCCC3(C)C)nn12 [Example 32] | 118
CCC(CC)c1cc(CC2CCCCC2)nc2cc(C(=O)N3CCCCCC3)nn12 [Example 37] | 88
CC1(C)CCCCN1C(=O)c1cc2nc(C3C4CC5CC(C4)CC3C5)cc(C(F)(F)F)n2n1 (stereo not drawn) [Example 112] | 113
COC1CCN(C(=O)c2cc3nc(CC4CCCC4)cc(C(F)(F)F)n3n2)C(C)(C)C1 (stereo not drawn) [Example 113] | 263
COC1CCN(C(=O)c2cc3nc(CC4CCCC4)cc(C(C)C)n3n2)C(C)(C)C1 (stereo not drawn) [Example 114] | 234
O=C(c1cc2nc(CC3CCCCC3)cc(C3CCCCCC3)n2n1)N1CCCCCC1 [Example 115] | 236
COCCN1CCN(C(=O)c2cc3nc(CC4CCCCC4)cc(C(C)C)n3n2)C(C)(C)C1 [Example 116, [5-(cyclohexylmethyl)-7-propan-2-ylpyrazolo[1,5-a]pyrimidin-2-yl]-[4-(2-methoxyethyl)-2,2-dimethylpiperazin-1-yl]methanone] | 233
CC(C)c1cc(CC2CCCCC2)nc2cc(C(=O)N3CCC(O)CC3(C)C)nn12 (stereo not drawn) [Example 118] | 253
CC(C)c1cc(CC2CCCCC2)nc2cc(C(=O)N3CCC(C)(C)C(=O)C3(C)C)nn12 [Example 119] | 185
CC(C)c1cc(CC2CCCCC2)nc2cc(C(=O)N3CCC(C)(C)C(O)C3(C)C)nn12 (stereo not drawn) [Example 120] | 298
CCc1cc(C2CCCCC2)nc2cc(C(=O)N3CCCCC3(C)C)nn12 [Example 121] | 245
COC1(C)CCCN(C(=O)c2cc3nc(CC4CCCCC4)cc(C(C)C)n3n2)C1(C)C (stereo not drawn) [Example 122] | 178
CC(C)c1cc(CC2CCCC2)nc2cc(C(=O)N3CC=CCCC3)nn12 [Example 123] | 135
CCC(C)c1cc(CC2CCCCC2)nc2cc(C(=O)N3CCCCC3(C)C)nn12 (stereo not drawn) [Example 124] | 144
CC(C)c1cc(CC2CCCCC2)nc2cc(C(=O)N3CCSCC3)nn12 [Example 125] | 256
CC(C)c1cc(CC2CCCCC2)nc2cc(C(=O)N3CC=CCCC3)nn12 [Example 126] | 207
CC1CCCN(C(=O)c2cc3nc(CC4CCCC4)cc(C(C)C)n3n2)CC1 (stereo not drawn) [Example 127] | 229
CCC(C)c1cc(CC2CCCCC2)nc2cc(C(=O)N3CCSCC3)nn12 (stereo not drawn) [Example 128] | 151
C=C1CCCN(C(=O)c2cc3nc(CC4CCCC4)cc(C(C)C)n3n2)C1(C)C [Example 129] | 208
CCC(CC)c1cc(CC2CCCCCC2)nc2cc(C(=O)N3CCCCC3(C)C)nn12 [Example 130] | 297
CCCN(CC)c1cc(CC2CCCCC2)nc2cc(C(=O)N3CCCCCC3)nn12 [Example 131] | 225
CC1CCC(Cc2cc(C(C)C)n3nc(C(=O)N4CCCCC4)cc3n2)CC1 (stereo not drawn) [Example 132] | 197
CCCCCc1cc(C23CC4CC(CC(C4)C2)C3)nc2cc(C(=O)N3CCCCCC3)nn12 [Example 133] | 360

SMILES | IC50 [nM]
O=C(c1cc2nc(CC3CCCC3)cc(C3CCCCC3)n2n1)N1CCCCCC1 [Example 134] | 382
CCCN(C)c1cc(CC2CCCCC2)nc2cc(C(=O)N3CCCCCC3)nn12 [Example 135] | 386
CCc1cc(C2CCCCCC2)nc2cc(C(=O)N3CCCCCC3)nn12 [Example 136] | 452
O=C(c1cc2nc(CC3CCCCC3)cc(C3CCC3)n2n1)N1CCCCCC1 [Example 137] | 482
CCC1CCC(Cc2cc(C(C)C)n3nc(C(=O)N4CCCCC4)cc3n2)CC1 (stereo not drawn) [Example 138] | 72
CCC1CCC(Cc2cc(C(C)C)n3nc(C(=O)N4CCCCCC4)cc3n2)CC1 (stereo not drawn) [Example 139] | 95
CC(C)c1cc(CC2CCCCC2)nc2cc(C(=O)N3CCCCC3)nn12 [Example 140] | 266
CCC(C)c1cc(CC2CCCC2)nc2cc(C(=O)N3CCCCC3)nn12 (stereo not drawn) [Example 141] | 304
CC(C)c1cc(CC2CCCCC2)nc2cc(C(=O)N3CCCC(F)(F)CC3)nn12 [Example 142] | 171
CCC(C)c1cc(CC2CCCCC2)nc2cc(C(=O)N3CCCCCCC3)nn12 (stereo not drawn) [Example 143] | 91
CCc1cc(CC2CCCC2)nc2cc(C(=O)N3CCCCCCC3)nn12 [Example 145] | 252
CCc1cc(CC2CCCCC2)nc2cc(C(=O)N3CCCCCCC3)nn12 [Example 146] | 136
CCc1cc(CC2CCCCCC2)nc2cc(C(=O)N3CCCCCCC3)nn12 [Example 147] | 163
CCc1cc(CC2CCCCCC2)nc2cc(C(=O)N3CCCCCC3)nn12 [Example 148] | 144
CCC(C)c1cc(CC2CCCCCC2)nc2cc(C(=O)N3CCCCCC3)nn12 (stereo not drawn) [Example 149] | 208
CC(C)(C)c1cc(CC2CCCC2)nc2cc(C(=O)N3CCCCCCC3)nn12 [Example 150] | 180
CC(C)c1cc(C2CC23CCCCC3)nc2cc(C(=O)N3CCCCCC3)nn12 (stereo not drawn) [Example 151] | 149
CC(C)c1cc(CC2CCC(C)(C)CC2)nc2cc(C(=O)N3CCCCCC3)nn12 [Example 152] | 132
CC(C)c1cc(CC2CCC(F)CC2)nc2cc(C(=O)N3CCCCCC3)nn12 (stereo not drawn) [Example 153] | 282
CC(C)c1cc(CC2CC3CCC2C3)nc2cc(C(=O)N3CCCCCC3)nn12 (stereo not drawn) [Example 154] | 47
CC(C)c1cc(CC2CCC(C(F)(F)F)CC2)nc2cc(C(=O)N3CCCCCC3)nn12 (stereo not drawn) [Example 156] | 103
CC(C)c1cc(C2CC3CCC2C3)nc2cc(C(=O)N3CCCCCC3)nn12 (stereo not drawn) [Example 157] | 319
CC(C)c1cc(CC2CCCCC2C)nc2cc(C(=O)N3CCCCCC3)nn12 (stereo not drawn) [Example 158] | 117
CC(C)c1cc(C2C3CCCCC32)nc2cc(C(=O)N3CCCCCC3)nn12 (stereo not drawn) [Example 159] | 394
CC(C)c1cc(CC2CC3(CCC3)C2)nc2cc(C(=O)N3CCCCCC3)nn12 [Example 160] | 147
CC(C)(C)c1cc(CC2CCCCC2)nc2cc(C(=O)N3CCCCC3(C)C)nn12 [Example 161] | 296
CC1(C)CCCCN1C(=O)c1cc2nc(C3CCCC3)cc(C(F)(F)F)n2n1 [Example 162] | 304

Same assay, conditions: IC50 (nM)

SMILES | IC50 [nM]
CC(C)c1cc(CC2CCC3CCCCC3C2)nc2cc(C(=O)N3CCCCCC3)nn12 (stereo not drawn) [Example 155] | 218

— patent US20240376109A1, “PYRAZOLO[1,5-A]PYRIMIDINE COMPOUND FOR THE TREATMENT OF DERMAL DISORDERS” (OTSUKA PHARMACEUTICAL CO., LTD., priority 2021, published 2024)
